Assay results reported in patent US8415469B2, “Compounds and methods for kinase modulation, and indications therefor” (Plexxikon Inc., priority 2005, dated 2013).

Experiments:
Format in all cases: biochemical
Fms = biological target: T1, Fms (Homo sapiens, UniProt P07333); assay: AlphaScreen kinase assay, Fms; settings: read-out: IC50, activity toward kinase Fms
T1 construct: purchased Upstate Biotechnology

Jnk1 = biological target: T2, Jnk1 (Homo sapiens, UniProt P45983); assay: AlphaScreen kinase assay, Jnk1; settings: read-out: IC50, activity toward kinase Jnk1
T2 construct: purchased Upstate Biotechnology

B-Raf = biological target: T3, B-Raf (Homo sapiens, UniProt P15056); assay: AlphaScreen kinase assay, B-Raf; settings: read-out: IC50, activity toward kinase B-Raf
T3 construct: purchased Upstate Biotechnology

FGFR1 = biological target: T4, FGFR1 (Homo sapiens, UniProt P11362, C488A/C584S); assay: AlphaScreen kinase assay, FGFR1; settings: read-out: IC50, activity toward kinase FGFR
T4 construct: P1351.pET N6 BI-PTP FGFR A458-E765-X C488A, C584S; made in house; host or cells: E. coli (PTP1B co-expressed)

Btk = biological target: T5, Btk (Homo sapiens, UniProt Q06187); assay: Z'-Lyte FRET kinase assay (Invitrogen), Btk; settings: read-out: IC50, activity toward kinase Btk
T5 construct: purchased Invitrogen (assay run by Invitrogen)

Src = biological target: T6, Src (Homo sapiens, UniProt P12931); assay: AlphaScreen kinase assay, Src; settings: read-out: IC50, activity toward kinase Src
T6 construct: P1144. pET-N6 BI-PTP SRC V86-L536-X; made in house
Text: AlphaScreen assay was used to screen additional kinases. The assay is similarly dependent on the phosphorylation of a peptide substrate. In this assay, an antibody that recognizes phosphorylated substrate is bound to an acceptor bead. The peptide substrate is attached to biotin, which binds to a donor head that contains streptavidin. Thus phosphorylated substrate is bound by antibody and streptavidin, bringing the donor and acceptor heads into close proximity when kinase is not inhibited. The donor produces singlet oxygen which results in emission from the acceptor when they are in close proximity. Conversely, when kinase is inhibited, the donor and acceptor beads are not associated and the emission from the acceptor is reduced.
AlphaScreen assays were done using compounds dissolved in DMSO to a concentration of 20 mM. The compounds were diluted accordingly to the desired final concentrations in each sample well, using 1:3 serial dilution for a total of 8 concentration points. Plates were prepared such that each kinase reaction is 20 μl in 1× kinase buffer, 5% DMSO and 10 μM ATP. After incubation of the kinase reaction for 1 hour at room temperature, 5 μl of donor beads in stop buffer (50 mM EDTA in 1× kinase buffer) was added, the sample was mixed and incubated for 20 minutes at room temperature before adding 5 μl of acceptor beads in stop buffer. The samples were incubated for 60 minutes at room temperature and the signal per well was read on AlphaQuest reader.

B-Raf V600E = biological target: T7, B-Raf V600E (Homo sapiens, UniProt P15056, V600E); assay: AlphaScreen kinase assay, B-Raf V600E; settings: read-out: IC50, activity toward kinase B-Raf V600E
T7 construct: P4254. pFastBacBD-CDC37 BRAF D437-K722-X, V600E; His6 with pFastBac HT leader (TEV site) (N); made in house; host or cells: Sf9 (baculovirus; chaperone CDC37 co-expressed)

Kit = biological target: T8, Kit (Homo sapiens, UniProt P10721); assay: AlphaScreen kinase assay, Kit; settings: read-out: IC50, activity toward kinase Kit
T8 construct: P1332.N6 BI PTP KIT M552-K948-X COD; His6 (N); made in house; host or cells: E. coli (PTP1B co-expressed)

Jnk3 = biological target: T9, Jnk3 (Homo sapiens, UniProt P53779); assay: AlphaScreen kinase assay, Jnk3; settings: read-out: IC50, activity toward kinase Jnk3
T9 construct: purchased Upstate Biotechnology

c-Raf-1 = biological target: T10, c-Raf-1 (Homo sapiens, UniProt P04049); assay: AlphaScreen kinase assay, c-Raf-1; settings: read-out: IC50, activity toward kinase c-Raf-1
T10 construct: purchased Upstate Biotechnology

Ret = biological target: T11, Ret (Homo sapiens, UniProt P07949); assay: AlphaScreen kinase assay, Ret; settings: read-out: IC50, activity toward kinase Ret
T11 construct: P1378.pET-SF BI-PTP RET H661-R1012 HIS; made in house
T11 sequence (P07949 with tags, fused parts or gaps): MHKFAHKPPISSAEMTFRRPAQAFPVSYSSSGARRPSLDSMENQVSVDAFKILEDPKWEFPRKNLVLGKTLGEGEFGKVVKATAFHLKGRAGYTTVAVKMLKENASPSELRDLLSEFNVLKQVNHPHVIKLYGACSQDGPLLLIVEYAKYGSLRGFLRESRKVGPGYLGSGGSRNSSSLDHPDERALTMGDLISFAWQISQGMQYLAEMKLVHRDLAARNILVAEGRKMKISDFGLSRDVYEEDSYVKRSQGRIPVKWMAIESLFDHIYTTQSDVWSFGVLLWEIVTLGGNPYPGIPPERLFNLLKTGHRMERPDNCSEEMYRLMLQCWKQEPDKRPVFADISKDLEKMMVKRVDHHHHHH

Fak = biological target: T12, Fak (Homo sapiens, UniProt Q05397); assay: AlphaScreen kinase assay, Fak; settings: read-out: IC50, activity toward kinase Fak
T12 construct: P1358.pFastBacHtb FAK S411-Q686-X; His6 with pFastBacHTb leader (TEV site) (N); made in house; host or cells: Sf9 (baculovirus)

Flt1 = biological target: T13, Flt1 (Homo sapiens, UniProt P17948); assay: AlphaScreen kinase assay, Flt1; settings: read-out: IC50, activity toward kinase Flt1
T13 construct: P1826.pETN6 BI-PTP FLT1 M799-D1165-X WT; His6 (N); made in house; host or cells: E. coli (PTP1B co-expressed)
T13 sequence (P17948 with tags, fused parts or gaps): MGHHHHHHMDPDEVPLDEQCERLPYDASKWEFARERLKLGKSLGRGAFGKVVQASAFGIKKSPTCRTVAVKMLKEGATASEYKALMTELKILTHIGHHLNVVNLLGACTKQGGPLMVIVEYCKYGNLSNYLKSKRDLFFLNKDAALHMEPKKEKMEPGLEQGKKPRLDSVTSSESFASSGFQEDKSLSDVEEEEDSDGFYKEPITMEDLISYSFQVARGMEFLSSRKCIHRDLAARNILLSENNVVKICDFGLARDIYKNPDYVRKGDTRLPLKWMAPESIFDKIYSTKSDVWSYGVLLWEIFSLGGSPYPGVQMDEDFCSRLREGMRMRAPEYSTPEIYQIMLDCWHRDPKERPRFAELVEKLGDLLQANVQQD

Measured: IC50

T6 sequence (P12931 with tags, fused parts or gaps): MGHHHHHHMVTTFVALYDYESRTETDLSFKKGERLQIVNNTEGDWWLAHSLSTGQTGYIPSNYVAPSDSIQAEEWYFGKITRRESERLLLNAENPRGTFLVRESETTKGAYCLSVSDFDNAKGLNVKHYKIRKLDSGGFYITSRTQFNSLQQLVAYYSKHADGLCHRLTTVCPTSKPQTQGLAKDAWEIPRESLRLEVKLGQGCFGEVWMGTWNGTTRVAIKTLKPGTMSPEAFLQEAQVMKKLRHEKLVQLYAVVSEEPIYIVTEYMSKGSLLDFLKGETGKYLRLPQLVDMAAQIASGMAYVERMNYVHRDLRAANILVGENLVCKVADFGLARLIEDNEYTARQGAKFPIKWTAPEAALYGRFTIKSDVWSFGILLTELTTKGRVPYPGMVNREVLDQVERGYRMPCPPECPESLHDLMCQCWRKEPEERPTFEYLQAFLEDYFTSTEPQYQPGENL
T9 sequence (P53779 whole entry): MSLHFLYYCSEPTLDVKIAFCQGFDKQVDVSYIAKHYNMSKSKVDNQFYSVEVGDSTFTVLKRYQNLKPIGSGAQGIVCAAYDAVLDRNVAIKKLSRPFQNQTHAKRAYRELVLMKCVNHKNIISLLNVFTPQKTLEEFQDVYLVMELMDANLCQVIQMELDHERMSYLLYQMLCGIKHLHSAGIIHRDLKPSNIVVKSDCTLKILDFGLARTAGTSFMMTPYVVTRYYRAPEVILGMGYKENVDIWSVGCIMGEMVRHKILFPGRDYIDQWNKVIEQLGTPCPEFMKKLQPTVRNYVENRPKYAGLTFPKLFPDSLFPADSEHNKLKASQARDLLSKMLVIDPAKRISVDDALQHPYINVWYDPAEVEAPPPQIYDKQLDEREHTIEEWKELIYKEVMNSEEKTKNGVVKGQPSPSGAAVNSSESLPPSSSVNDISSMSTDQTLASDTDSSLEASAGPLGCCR
T3 sequence (P15056 whole entry): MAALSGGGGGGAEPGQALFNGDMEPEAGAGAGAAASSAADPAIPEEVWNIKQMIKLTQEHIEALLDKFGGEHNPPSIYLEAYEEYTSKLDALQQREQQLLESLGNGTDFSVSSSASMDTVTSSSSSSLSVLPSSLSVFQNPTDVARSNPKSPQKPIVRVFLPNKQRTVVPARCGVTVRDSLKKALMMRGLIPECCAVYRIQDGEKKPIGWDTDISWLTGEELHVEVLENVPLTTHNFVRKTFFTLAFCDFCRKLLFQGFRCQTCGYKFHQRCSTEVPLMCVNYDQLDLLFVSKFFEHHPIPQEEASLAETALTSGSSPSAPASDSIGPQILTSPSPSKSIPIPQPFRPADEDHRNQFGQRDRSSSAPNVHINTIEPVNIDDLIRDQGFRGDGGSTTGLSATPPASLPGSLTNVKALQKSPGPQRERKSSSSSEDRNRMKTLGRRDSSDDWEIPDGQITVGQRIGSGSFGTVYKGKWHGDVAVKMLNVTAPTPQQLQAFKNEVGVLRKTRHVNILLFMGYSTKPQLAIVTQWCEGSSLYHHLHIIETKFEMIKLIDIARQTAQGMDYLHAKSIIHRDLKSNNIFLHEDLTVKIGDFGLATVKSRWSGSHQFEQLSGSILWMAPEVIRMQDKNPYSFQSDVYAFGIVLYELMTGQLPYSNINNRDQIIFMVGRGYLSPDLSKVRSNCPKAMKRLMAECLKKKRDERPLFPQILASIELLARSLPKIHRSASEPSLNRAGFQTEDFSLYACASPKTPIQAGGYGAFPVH
T2 sequence (P45983 whole entry): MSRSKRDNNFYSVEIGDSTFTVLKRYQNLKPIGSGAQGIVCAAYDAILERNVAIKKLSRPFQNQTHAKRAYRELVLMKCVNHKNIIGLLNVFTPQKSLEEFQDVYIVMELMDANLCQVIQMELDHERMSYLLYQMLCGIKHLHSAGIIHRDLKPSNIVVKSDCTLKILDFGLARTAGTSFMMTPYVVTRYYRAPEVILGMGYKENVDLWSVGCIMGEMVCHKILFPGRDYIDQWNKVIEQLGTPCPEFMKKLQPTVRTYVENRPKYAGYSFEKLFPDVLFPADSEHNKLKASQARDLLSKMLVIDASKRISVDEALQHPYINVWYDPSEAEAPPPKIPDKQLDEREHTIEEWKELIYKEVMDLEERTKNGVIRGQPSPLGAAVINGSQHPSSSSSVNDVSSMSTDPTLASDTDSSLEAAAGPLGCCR
T5 sequence (Q06187 whole entry): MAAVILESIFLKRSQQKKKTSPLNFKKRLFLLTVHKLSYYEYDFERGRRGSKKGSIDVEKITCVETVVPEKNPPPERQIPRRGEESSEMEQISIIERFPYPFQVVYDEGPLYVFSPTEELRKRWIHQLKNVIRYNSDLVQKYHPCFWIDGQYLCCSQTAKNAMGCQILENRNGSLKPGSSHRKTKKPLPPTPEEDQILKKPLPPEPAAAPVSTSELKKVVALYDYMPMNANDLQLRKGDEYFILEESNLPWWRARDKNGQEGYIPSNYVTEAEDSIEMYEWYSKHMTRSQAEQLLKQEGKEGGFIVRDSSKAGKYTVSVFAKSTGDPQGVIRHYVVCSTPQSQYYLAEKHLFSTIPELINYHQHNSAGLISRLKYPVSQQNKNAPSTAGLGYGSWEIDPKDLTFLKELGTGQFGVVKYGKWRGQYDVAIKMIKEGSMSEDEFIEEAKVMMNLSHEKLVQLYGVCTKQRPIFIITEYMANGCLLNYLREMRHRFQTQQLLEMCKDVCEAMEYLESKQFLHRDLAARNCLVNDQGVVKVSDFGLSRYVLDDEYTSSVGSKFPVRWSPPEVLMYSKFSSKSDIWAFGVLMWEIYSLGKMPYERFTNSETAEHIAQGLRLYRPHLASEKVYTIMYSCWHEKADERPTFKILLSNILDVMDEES
T4 sequence (P11362 458-765 C488A/C584S): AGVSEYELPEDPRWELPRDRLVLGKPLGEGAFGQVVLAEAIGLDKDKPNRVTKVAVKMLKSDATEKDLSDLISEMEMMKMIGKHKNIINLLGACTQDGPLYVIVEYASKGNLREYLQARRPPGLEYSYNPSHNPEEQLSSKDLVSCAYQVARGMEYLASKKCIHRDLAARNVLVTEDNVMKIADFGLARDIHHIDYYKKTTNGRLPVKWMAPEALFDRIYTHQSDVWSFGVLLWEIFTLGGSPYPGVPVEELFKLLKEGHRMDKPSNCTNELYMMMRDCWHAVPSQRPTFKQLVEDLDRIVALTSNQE
T10 sequence (P04049 whole entry): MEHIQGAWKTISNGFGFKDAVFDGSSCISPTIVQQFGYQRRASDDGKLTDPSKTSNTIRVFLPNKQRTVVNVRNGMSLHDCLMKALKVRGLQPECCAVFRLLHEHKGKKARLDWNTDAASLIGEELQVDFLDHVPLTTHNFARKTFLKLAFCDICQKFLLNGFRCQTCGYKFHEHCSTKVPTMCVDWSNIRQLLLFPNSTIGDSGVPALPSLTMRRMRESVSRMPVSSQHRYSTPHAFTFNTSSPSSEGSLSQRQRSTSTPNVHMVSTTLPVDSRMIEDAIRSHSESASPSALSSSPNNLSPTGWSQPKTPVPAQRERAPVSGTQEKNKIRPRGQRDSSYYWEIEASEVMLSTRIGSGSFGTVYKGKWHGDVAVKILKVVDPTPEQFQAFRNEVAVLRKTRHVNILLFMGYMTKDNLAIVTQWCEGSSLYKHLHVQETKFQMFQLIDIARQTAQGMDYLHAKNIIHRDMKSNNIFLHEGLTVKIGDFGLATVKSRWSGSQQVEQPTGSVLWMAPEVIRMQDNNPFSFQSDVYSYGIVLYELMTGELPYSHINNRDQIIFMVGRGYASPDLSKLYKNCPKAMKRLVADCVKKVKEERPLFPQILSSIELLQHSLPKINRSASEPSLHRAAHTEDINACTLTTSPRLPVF
T8 sequence (P10721 with tags, fused parts or gaps): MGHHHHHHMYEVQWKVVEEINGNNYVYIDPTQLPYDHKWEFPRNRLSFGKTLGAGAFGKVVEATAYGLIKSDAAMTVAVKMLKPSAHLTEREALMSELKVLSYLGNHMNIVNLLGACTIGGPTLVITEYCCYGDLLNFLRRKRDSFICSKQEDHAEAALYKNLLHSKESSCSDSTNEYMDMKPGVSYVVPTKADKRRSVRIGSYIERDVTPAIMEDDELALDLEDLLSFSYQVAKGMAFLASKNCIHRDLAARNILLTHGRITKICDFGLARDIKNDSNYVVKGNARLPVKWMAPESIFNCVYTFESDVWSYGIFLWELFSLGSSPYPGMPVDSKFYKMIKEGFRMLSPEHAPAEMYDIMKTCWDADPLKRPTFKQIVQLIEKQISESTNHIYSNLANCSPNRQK
T7 sequence (P15056 with tags, fused parts or gaps V600E): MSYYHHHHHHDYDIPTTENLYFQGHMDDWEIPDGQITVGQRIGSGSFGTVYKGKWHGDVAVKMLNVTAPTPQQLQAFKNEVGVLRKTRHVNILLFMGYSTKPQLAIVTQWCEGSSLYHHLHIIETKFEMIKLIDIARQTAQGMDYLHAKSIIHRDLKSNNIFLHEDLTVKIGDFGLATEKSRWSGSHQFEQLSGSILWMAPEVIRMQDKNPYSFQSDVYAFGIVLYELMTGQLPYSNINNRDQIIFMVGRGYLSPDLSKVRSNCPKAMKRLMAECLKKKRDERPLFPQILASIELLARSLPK
T12 sequence (Q05397 411-686): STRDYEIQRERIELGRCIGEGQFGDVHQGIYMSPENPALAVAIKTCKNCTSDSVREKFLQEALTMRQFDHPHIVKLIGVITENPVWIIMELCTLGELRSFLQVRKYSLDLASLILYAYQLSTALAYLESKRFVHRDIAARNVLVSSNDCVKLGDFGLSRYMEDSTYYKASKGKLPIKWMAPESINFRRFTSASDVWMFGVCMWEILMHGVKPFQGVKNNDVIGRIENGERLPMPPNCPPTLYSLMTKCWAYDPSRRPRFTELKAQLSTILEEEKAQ

COc1cccc(C(=O)c2c[nH]c3ncc(-c4cccnc4)cc23)c1F [Compound P-1343, (2-Fluoro-3-methoxy-phenyl)-(5-pyridin-3-yl-1H-pyrrolo[2,3-b]pyridin-3-yl)-methanone]
not listed: Jnk3 | c-Raf-1 | Ret | Fak | Flt1
≤ 10 µM: all other assays above

O=C(c1c(F)ccc(NCc2ccccc2)c1F)c1c[nH]c2ncc(-c3cccnc3)cc12 [Compound P-0807, (3-Benzylamino-2,6-difluoro-phenyl)-(5-pyridin-3-yl-1H-pyrrolo[2,3-b]pyridin-3-yl)-methanone]
not listed: Kit | Fak | Flt1
≤ 10 µM: all other assays above

CCCS(=O)(=O)Nc1ccc(F)c(C(=O)c2c[nH]c3ncc(/C=C/C(=O)O)cc23)c1F [Compound P-1269, 3-3-[2,6-difluoro-3-(propane-1-sulfonylamino)-benzoyl]-1H-pyrrolo[2,3-b]pyridin-5-yl-acrylic acid]
not listed: Jnk1 | Jnk3 | c-Raf-1 | Ret
≤ 10 µM: all other assays above

CCCS(=O)(=O)Nc1ccc(F)c(C(=O)c2c[nH]c3ncc(-c4cccc(C(=O)O)c4)cc23)c1F [Compound P-1266, 3-{3-[2,6-Difluoro-3-(propane-1-sulfonylamino)-benzoyl]-1H-pyrrolo[2,3-b]pyridin-5-yl}-benzoic acid]
not listed: Jnk3 | c-Raf-1 | Ret
≤ 10 µM: all other assays above

COc1ccc(F)c(C(=O)c2c[nH]c3ncc(-c4ccncc4)cc23)c1F [Compound P-1389, (2,6-Difluoro-3-methoxy-phenyl)-(5-pyridin-4-yl-1H-pyrrolo[2,3-b]pyridin-3-yl)-methanone]
not listed: Jnk1 | Src | Jnk3 | Ret | Flt1
≤ 10 µM: all other assays above

O=C(c1c(F)cccc1F)c1c[nH]c2ncc(-c3cccnc3)cc12 [Compound P-1485]
not listed: Jnk1 | Kit | c-Raf-1 | Ret | Flt1
≤ 10 µM: all other assays above

O=C(c1c(Cl)cccc1Cl)c1c[nH]c2ncc(-c3cccnc3)cc12 [Compound P-1479]
not listed: Jnk1 | Jnk3 | c-Raf-1 | Ret | Flt1
≤ 10 µM: all other assays above

Cc1cccc(C)c1Cc1c[nH]c2ncc(-c3cccnc3)cc12 [Compound P-1481, 3-(2,6-Dimethyl-benzyl)-5-pyridin-3-yl-1H-pyrrolo[2,3-b]pyridine]
not listed: Jnk1 | Jnk3 | c-Raf-1 | Ret | Flt1
≤ 10 µM: all other assays above

COc1ccc(F)c(C(=O)c2c[nH]c3ncc(-c4cccnc4)cc23)c1F [Compound P-1388, (2,6-Difluoro-3-methoxy-phenyl)-(5-pyridin-3-yl-1H-pyrrolo[2,3-b]pyridin-3-yl)-methanone]
not listed: Jnk1 | Jnk3 | Ret | Flt1
≤ 10 µM: all other assays above

O=C(Nc1ccc(F)c(C(=O)c2c[nH]c3ncc(-c4cccnc4)cc23)c1F)OCc1ccccc1 [Compound P-0302, [2,4-Difluoro-3-(5-pyridin-3-yl-1H-pyrrolo[2,3-b]pyridine-3-carbonyl)-phenyl]-carbamic acid benzyl ester]
not listed: Jnk3
≤ 10 µM: all other assays above

O=C(O)/C=C/c1ccc(-c2cnc3[nH]cc(C(=O)c4ccccc4F)c3c2)cc1 [Compound P-1473]
not listed: Kit | c-Raf-1 | Ret | Flt1
≤ 10 µM: all other assays above

Cc1cccc(C)c1C(=O)c1c[nH]c2ncc(-c3cccnc3)cc12 [Compound P-1480]
not listed: Jnk1 | Jnk3 | c-Raf-1 | Ret | Flt1
≤ 10 µM: all other assays above

O=C(c1c(F)ccc(NS(=O)(=O)c2cccs2)c1F)c1c[nH]c2ncc(Cl)cc12 [Compound P-1267, Thiophene-2-sulfonic acid [3-(5-chloro-1H-pyrrolo[2,3-b]pyridine-3-carbonyl)-2,4-difluoro-phenyl]-amide]
not listed: Jnk1 | Jnk3 | c-Raf-1 | Ret | Flt1
≤ 10 µM: all other assays above

CCNC(=O)COc1ccc(F)c(Cc2c[nH]c3ncc(-c4cccnc4)cc23)c1F [Compound P-1475, 2-[2,4-Difluoro-3-(5-pyridin-3-yl-1H-pyrrolo[2,3-b]pyridin-3-ylmethyl)-phenoxy]-N-ethyl-acetamide]
not listed: c-Raf-1 | Ret
≤ 10 µM: all other assays above

COc1ccc(C(=O)c2c[nH]c3ncc(-c4cccc(C(N)=O)c4)cc23)c(F)c1 [Compound P-1346]
not listed: c-Raf-1 | Ret | Flt1
≤ 10 µM: all other assays above
